From patent US20090170131A1, “Agents for Imaging Apoptosis” (priority 2006, published 2009)

Columns and labels:
[1] = target: T1, caspase-3 (Homo sapiens, UniProt P42574); assay: AMC-M808 cleavage in DLD1 colon carcinoma cells after TRAIL treatment, time-lapse confocal fluorescence; assay type: cell-based
T1 construct: In DLD1 colon carcinoma cells in vitro; endogenous in cells; host or cells: DLD1 colon carcinoma cells
T1 sequence (P42574 29-175 limits assumed): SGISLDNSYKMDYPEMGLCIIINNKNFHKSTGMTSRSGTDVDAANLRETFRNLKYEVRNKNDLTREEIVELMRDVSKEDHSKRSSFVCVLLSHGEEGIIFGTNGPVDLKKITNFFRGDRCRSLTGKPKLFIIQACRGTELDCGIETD
T1 sequence (P42574 176-277 limits assumed): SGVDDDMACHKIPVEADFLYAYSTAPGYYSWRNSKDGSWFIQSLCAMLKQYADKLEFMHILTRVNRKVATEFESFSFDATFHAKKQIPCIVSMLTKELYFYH
Description: FIG. 1 is an image of AMC fluorescence from an imaging agent in DLD1 colon carcinoma cells before (A) and after 2 hour treatment with TNF-related apoptosis-inducing ligand (TRAIL) (B).
DLD1 cells were seeded in an 8-chamber glass slide at a density of 2×10^4 cells/cm^2 in DMEM containing 10% FBS and allowed to attach overnight. Fluorescent images of the plated cells were acquired using an Olympus FV1000 confocal microscope equipped with an onstage incubation chamber. TRAIL was added to the cells in a 0.5 mL volume of fresh medium at a concentration of 50 ng/mL. Time-lapse microscopy was then immediately initiated with confocal images acquired at a rate of one image every 10 minutes. The cells were maintained at 37° C. in 5% CO2 for the duration of the experiment. An excitation wavelength of 405 nm and an emission wavelength range of 425 to 475 nm were used to detect the cleaved product of AMC-M808. Fluorescence intensity over time was measured in a representative region-of-interest in each 10-minute image acquired to determine the rate of caspase activity.

[2] = test system: caspases; details: cell cultures containing 23% apoptotic cells; cited from earlier work

## COc1ccccc1CC(=O)NC(C(=O)NC(CC(=O)OCc1ccccc1)C(=O)Nc1ccc2c(C)cc(=O)oc2c1)C(C)C (stereo not shown) [Compound 3]
[1]; DLD1 cells treated with TRAIL
  cleavage by caspase-3 after induction of apoptosis: cleaved by caspase-3
[1]; DLD1 cells, after TRAIL 50 ng/mL, first hour, region of interest in 10 minute frames
  rate of increase in fluorescence intensity due to AMC-M808 cleavage: 5.5 min⁻¹
[1]; DLD1 colon carcinoma cells in vitro
  cell permeability: cell permeable

## radioiodinated Z-Val-Ala-DL-Asp(O-methyl)-fluoromethyl ketone [[^131I]IZ-VAD-fmk]
[2]
  uptake in cell cultures: some increase in uptake
